We go through three compounds from patent US10609926B2, “Synergistic herbicidal composition” (JIANGSU ROTAM CHEMISTRY CO., LTD, priority 2016, dated 2020).

Each structure is given as a SMILES string.

The test system of this experiment is gramineous weeds, broadleaf weeds and sedge weeds. The experiment can be described thus: Post-emergence weed control efficacy test (potted plants, stem and leaf treatment; Colby evaluation). Format: in vivo. From the text: The desired efficacy of the combination of three active compounds can be calculated through “Colby formula” as follows (S. R. Colby, “Calculating Synergistic and Antagonistic Responses of Herbicide Combinations, Weeds 1967, 15, 20-22): if
E0 is the anticipated activity of active compounds A, B and C when used in an amount of m, n, h g/ha or concentrate of m, n, h ppm, E0=A×B×C/(100^(N-1))
If the observed actual activity E is greater than the anticipated activity (E0), then the composition has synergistic effect.
If the observed actual efficiency of weed control (E) through the biology test is greater than the anticipated value (E0) as calculated via Colby's equation, then it represents that the efficacy of herbicidal composition is greater than the sum of efficacy of each component, which means the composition has synergistic effect.
Use stem and leaf treatment for potted grown plant(NY/T 1155.4-2006): fill a plastic pot (6 cm height, 9 cm diameter) with a quantity of soil and sow 15 to 20 seeds of monocotyledonous weeds and dicotyledonous weeds in the plastic pot, cover it with 0.5 to 1 cm thick of fine soil and then put it in greenhouse for cultivation. When weeds grow to the 2 to 4 leave stage, conduct the stem and leaf spray treatment with 1 mL herbicidal solution on each pot and repeat four times for each treatment and leave some pots untreated as control group. Keep the treated pots in a greenhouse for cultivation and observe the growing status of target weeds periodically. Conduct the visual test on the target weeds regarding the damage symptoms and growth inhibition effect after 21 days. Weigh up the fresh weight above the ground or plant fresh weight and evaluate the toxicity of the herbicidal formulation on target weeds based on the fresh weight inhibition rate of the target.
Prepare the following formulations according to specific weight percentages: 1. Pyroxasulfone; 2. Topramezone; 3 Atrazine; 4. Pyroxasulfone+Topramezone; 5. Pyroxasulfone+Atrazine; 6. Topramezone+Atrazine; 7. Pyroxasulfone+Topramezone+Atrazine. After that, dilute above formulations with water to obtain diluted formulations.
Conduct visual assessment the damage symptom and growth inhibition status of target weeds after 21 days. Weigh up the fresh weight above the ground and calculate the inhibition rate of fresh weight (%).
Anticipated effects of the special combined three active components can be calculated through so called “Colby formula”. If the actual efficiency of weed control observed during the biology test exceeds the anticipated value […] calculated by Colby's formula, then it represents that the efficacy of herbicidal composition is greater than the sum of efficacy of each component, which means the composition has synergistic effect.
The synergistic herbicidal composition of present invention has conducted test on the following important harmful plants (gramineous weeds, broadleaf weeds, sedge weeds) with wide herbicidal spectrum: Echinochloa oryzicola, Digitaria spp., Stellaria media, Amaranthus retroflexus, Fallopia (ex Polygonum) Convolvulus, Abuthilon theophrasti, Sagittariatrifolia, Oriental Waterplantain Rhizome, Herb of Pygmy Arrowhead, Monochoria korsakowii, Lindernia procumbens, Solanum nigrum L., Scirpus juncoides Roxb, Cyperus difformis L., Chenopodium alum L., Avena fatua L. and Galium aparine L. var. tenerum Gren. et (Godr.) Rebb.

With `CCNc1nc(Cl)nc(NC(C)C)n1` [Atrazine, 2-chloro-4-ethylamino-6-isopropylamino-1,3,5-triazine], the Actual survival rate by setting is: (application rate 1 g/ha) 100%; (application rate 50 g/ha) 100%; (application rate 100 g/ha) 67%.
In the case of `Cc1c(C(=O)c2cnn(C)c2O)ccc(S(C)(=O)=O)c1C1=NOCC1` [Topramezone, [3-(4,5-dihydro-3-isoxazolyl)-2-methyl-4-(methylsulfonyl)phenyl](5-hydroxy-1-methyl-1H-pyrazol-4-yl)methanone], the Actual survival rate runs as follows: (application rate 1 g/ha) 87.8%; (application rate 25 g/ha) 24.5%; (application rate 50 g/ha) 12.8%.
For `Cn1nc(C(F)(F)F)c(CS(=O)(=O)C2=NOC(C)(C)C2)c1OC(F)F` [Pyroxasulfone, 3-[5-(difluoromethoxy)-1-methyl-3-(trifluoromethyl)pyrazol-4-ylmethylsulfonyl]-4,5-dihydro-5,5-dimthyl-1,2-oxazole], the Actual survival rate is on record as 89% (application rate 1 g/ha), 78% (application rate 5 g/ha) and 60% (application rate 10 g/ha).
